Test results from patent US4550102A, “Cephem compounds” (Fujisawa Pharmaceutical Co. Ltd., priority 1981, dated 1985).

Experiments:
Test in all cases: In vitro antimicrobial activity, two-fold agar-plate dilution method
Type in all cases: cell-based
[1] = system: E. coli 31; settings: Escherichia coli, heart infusion agar, 37° C., 20 hours, approximately 10^8 viable cells per ml, read-out: MIC (minimal inhibitory concentration)
Procedure: (§1) Test: In vitro Antimicrobial Activity
(§2) In vitro Antimicrobial activity was determined by the two-fold agar-plate dilution method as described below.
(§3) One loopful of an overnight culture of each test strain in Tripticase-soy broth (approximately 10^8 viable cells per ml) was streaked on heart infusion agar (HI-agar) containing graded concentrations of an antimicrobial agent, and the minimal inhibitory concentration (MIC) was expressed in term of μg/ml after incubation at 37° C. for 20 hours.

[2] = system: K. pneumoniae 20; settings: Klebsiella pneumoniae, heart infusion agar, 37° C., 20 hours, approximately 10^8 viable cells per ml, read-out: MIC (minimal inhibitory concentration)
Procedure: as §1, §2, §3

[3] = system: E. coli NIHJ JC - 2; settings: Escherichia coli, heart infusion agar, 37° C., 20 hours, approximately 10^8 viable cells per ml, read-out: MIC (minimal inhibitory concentration)
Procedure: as §1, §2, §3

Measured: MIC

CO/N=C(\C(=O)NC1C(=O)N2C(C(=O)[O-])=C(C[n+]3cccc(N)c3)CSC12)c1csc(N)n1 (stereo not drawn) [Compound A, 7-[2-Methoxyimino-2-(2-aminothiazol-4-yl)acetamido]-3-(3-amino-1-pyridiniomethyl)-3-cephem-4-carboxylate (syn isomer)]
< 0.025 µg/mL: all assays above
